Tests used:
[1] = biological target: Serine/threonine-protein kinase pim-2 (Homo sapiens) (UniProt Q9P1W9); assay: Inhibition of PIM2 (unknown origin) assessed as remaining activity at 1 uM by Kinome scan method relative to control
[2] = biological target: Aurora kinase B (Homo sapiens) (UniProt Q96GD4); assay: Inhibition of AURKB (unknown origin) assessed as remaining activity at 1 uM by Kinome scan method relative to control
[3] = tested on: Tyrosine-protein kinase ABL1 (Homo sapiens), P00519 [F317L]; assay: Inhibition of ABL1 F317L mutant (unknown origin) assessed as remaining activity at 1 uM by Kinome scan method relative to control
Sequence of Tyrosine-protein kinase ABL1 (Homo sapiens), P00519 [F317L] (P00519 whole entry F317L): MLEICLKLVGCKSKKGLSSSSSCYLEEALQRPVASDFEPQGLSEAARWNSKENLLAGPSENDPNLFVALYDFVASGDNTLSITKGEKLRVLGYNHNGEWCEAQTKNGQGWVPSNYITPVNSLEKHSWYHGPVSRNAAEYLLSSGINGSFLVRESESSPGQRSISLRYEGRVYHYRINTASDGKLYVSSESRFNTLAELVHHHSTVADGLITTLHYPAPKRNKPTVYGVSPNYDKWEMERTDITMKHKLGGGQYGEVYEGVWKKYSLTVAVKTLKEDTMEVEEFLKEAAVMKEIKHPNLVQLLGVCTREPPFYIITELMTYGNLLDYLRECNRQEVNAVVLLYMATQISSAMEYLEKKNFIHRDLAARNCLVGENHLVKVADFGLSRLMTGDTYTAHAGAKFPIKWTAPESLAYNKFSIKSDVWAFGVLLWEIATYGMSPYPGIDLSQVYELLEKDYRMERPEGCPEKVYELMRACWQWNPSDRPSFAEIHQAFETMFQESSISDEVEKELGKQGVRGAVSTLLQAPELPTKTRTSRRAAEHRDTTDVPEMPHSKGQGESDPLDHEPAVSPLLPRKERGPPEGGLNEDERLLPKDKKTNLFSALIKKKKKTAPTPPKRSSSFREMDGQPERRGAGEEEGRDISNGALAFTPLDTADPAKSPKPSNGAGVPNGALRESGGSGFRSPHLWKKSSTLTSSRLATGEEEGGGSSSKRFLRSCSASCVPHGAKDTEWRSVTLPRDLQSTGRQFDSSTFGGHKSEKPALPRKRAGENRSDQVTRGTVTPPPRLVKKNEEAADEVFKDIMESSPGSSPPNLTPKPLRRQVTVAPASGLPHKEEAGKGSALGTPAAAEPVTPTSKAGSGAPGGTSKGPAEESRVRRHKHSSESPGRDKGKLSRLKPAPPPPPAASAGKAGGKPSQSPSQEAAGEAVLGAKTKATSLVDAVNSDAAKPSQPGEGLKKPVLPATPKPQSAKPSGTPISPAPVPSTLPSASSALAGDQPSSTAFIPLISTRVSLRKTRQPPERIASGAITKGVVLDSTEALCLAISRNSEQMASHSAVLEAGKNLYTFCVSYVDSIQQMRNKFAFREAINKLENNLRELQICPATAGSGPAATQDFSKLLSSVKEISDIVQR

[4] = biological target: Ephrin type-B receptor 6 (Homo sapiens) (UniProt O15197); assay: Inhibition of EPHB6 (unknown origin) assessed as remaining activity at 1 uM by Kinome scan method relative to control
Sequence of Ephrin type-B receptor 6 (Homo sapiens) (O15197 whole entry): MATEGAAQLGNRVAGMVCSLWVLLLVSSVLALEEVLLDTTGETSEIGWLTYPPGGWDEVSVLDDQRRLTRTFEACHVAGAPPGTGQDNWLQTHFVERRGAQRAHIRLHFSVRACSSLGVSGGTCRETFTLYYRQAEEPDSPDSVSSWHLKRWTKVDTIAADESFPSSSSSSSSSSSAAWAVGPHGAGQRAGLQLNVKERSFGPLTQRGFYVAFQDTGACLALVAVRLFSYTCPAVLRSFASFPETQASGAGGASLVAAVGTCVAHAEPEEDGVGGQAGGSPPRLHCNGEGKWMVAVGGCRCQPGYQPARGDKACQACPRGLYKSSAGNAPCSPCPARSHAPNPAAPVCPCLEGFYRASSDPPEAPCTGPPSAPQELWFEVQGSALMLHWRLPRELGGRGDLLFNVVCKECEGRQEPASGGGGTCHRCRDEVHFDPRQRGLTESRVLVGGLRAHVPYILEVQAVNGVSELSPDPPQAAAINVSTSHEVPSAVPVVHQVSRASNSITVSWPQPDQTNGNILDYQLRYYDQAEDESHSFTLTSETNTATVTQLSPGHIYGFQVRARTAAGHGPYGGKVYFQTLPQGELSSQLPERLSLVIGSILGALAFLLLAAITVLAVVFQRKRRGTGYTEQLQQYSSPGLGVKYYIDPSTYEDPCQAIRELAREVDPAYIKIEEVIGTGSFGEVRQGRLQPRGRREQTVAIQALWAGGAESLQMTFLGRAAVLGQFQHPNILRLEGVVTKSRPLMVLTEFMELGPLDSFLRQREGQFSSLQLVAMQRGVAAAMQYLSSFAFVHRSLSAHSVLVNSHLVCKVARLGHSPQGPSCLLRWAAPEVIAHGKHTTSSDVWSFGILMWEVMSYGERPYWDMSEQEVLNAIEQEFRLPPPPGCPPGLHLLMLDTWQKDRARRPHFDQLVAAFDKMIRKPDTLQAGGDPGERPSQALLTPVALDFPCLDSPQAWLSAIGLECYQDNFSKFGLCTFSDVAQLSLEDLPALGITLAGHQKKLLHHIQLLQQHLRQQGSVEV

[5] = biological target: T1, Ephrin type-A receptor 1 (Homo sapiens) (UniProt P21709); assay: Inhibition of EPHA1 (unknown origin) assessed as remaining activity at 1 uM by Kinome scan method relative to control
T1 sequence (whole entry): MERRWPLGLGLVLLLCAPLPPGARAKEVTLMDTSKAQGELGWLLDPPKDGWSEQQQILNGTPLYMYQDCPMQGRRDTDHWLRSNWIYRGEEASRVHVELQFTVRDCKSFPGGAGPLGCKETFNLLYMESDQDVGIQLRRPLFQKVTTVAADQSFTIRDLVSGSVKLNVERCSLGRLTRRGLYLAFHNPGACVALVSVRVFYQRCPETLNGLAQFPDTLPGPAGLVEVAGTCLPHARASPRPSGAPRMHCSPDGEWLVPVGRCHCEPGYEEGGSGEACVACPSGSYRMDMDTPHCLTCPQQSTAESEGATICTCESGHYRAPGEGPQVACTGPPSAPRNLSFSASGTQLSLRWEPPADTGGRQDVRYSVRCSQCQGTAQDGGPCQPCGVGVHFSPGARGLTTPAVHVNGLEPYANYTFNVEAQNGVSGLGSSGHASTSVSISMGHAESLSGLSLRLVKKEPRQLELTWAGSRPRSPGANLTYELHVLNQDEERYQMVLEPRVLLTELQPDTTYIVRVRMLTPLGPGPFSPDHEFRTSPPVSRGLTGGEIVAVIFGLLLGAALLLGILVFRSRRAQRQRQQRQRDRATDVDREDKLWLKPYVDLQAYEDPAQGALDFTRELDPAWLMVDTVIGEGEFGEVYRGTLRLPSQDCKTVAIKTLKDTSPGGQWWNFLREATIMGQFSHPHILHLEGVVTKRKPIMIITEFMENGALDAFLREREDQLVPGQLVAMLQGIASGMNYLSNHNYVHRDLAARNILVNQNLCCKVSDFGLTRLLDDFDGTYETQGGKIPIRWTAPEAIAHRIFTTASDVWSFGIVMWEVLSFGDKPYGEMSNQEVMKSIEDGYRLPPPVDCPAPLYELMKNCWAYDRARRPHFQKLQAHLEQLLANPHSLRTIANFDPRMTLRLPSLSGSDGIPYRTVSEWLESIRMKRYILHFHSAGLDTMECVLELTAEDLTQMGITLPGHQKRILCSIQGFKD

[6] = biological target: T2, Myotonin-protein kinase (Homo sapiens) (UniProt Q09013); assay: Inhibition of DMPK (unknown origin) assessed as remaining activity at 1 uM by Kinome scan method relative to control
T2 sequence (whole entry): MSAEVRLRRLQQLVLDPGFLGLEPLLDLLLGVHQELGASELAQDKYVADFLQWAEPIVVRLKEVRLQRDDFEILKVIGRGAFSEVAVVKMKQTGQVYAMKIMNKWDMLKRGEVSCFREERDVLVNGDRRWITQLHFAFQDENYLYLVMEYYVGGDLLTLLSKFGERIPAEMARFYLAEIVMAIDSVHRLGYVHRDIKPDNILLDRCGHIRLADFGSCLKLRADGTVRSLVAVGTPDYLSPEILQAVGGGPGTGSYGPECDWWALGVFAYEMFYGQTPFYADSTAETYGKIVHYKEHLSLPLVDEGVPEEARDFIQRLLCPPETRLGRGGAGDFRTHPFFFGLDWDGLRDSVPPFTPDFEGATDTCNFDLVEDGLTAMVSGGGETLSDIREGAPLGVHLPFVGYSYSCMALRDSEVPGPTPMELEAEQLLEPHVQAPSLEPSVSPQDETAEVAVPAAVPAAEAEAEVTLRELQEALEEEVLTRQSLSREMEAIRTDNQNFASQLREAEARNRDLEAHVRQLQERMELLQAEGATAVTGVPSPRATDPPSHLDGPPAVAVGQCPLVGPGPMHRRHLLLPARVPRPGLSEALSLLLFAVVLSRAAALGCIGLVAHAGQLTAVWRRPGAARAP

[7] = tested on: Mast/stem cell growth factor receptor Kit (Homo sapiens), P10721 [D816V]; assay: Inhibition of KIT D816V mutant (unknown origin) assessed as remaining activity at 1 uM by Kinome scan method relative to control
Sequence of Mast/stem cell growth factor receptor Kit (Homo sapiens), P10721 [D816V] (P10721 whole entry D816V): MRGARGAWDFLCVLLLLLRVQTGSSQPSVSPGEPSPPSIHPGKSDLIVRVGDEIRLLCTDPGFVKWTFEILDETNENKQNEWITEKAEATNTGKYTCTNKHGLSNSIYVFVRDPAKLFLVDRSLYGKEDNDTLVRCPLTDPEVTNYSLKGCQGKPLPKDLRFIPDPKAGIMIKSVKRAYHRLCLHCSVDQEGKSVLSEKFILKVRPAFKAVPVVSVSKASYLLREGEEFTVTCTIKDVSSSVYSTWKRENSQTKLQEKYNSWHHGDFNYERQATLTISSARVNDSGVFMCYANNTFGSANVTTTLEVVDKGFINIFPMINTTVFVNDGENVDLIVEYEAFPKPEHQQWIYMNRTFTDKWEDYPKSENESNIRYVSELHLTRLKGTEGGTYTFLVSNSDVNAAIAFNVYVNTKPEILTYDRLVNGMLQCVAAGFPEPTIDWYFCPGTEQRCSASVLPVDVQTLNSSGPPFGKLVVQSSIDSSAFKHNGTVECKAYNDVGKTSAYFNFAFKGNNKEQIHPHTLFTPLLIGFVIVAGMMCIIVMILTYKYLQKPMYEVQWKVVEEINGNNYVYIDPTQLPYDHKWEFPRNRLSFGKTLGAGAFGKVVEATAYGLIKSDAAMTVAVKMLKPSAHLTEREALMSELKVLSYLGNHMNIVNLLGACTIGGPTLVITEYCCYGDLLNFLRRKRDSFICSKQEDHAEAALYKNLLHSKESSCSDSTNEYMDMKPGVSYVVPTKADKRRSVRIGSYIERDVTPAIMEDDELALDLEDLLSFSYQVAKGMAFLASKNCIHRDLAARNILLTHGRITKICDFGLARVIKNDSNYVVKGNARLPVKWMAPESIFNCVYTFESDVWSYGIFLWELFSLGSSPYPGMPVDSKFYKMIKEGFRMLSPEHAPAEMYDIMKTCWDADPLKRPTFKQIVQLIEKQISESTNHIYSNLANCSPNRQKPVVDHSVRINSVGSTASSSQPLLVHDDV

[8] = biological target: T3, Homeodomain-interacting protein kinase 4 (Homo sapiens) (UniProt Q8NE63); assay: Inhibition of HIPK4 (unknown origin) assessed as remaining activity at 1 uM by Kinome scan method relative to control
T3 sequence (whole entry): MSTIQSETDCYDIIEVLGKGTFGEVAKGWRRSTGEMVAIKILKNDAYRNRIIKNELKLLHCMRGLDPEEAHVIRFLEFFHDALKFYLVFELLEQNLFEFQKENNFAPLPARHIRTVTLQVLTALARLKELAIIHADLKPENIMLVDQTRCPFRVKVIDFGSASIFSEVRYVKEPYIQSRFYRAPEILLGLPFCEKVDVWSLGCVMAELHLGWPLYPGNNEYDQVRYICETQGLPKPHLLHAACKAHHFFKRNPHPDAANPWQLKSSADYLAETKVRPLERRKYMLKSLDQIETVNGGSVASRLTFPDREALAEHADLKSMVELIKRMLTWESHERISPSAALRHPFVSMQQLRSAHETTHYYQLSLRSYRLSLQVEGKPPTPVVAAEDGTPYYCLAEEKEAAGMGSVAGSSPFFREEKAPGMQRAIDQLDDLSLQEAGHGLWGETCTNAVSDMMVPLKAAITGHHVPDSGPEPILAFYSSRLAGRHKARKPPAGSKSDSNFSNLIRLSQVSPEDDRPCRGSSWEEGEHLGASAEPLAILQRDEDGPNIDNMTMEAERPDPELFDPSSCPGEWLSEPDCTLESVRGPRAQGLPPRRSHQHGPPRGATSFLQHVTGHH

[9] = biological target: RAF proto-oncogene serine/threonine-protein kinase (Homo sapiens) (UniProt P04049); assay: Inhibition of RAF1 (unknown origin) assessed as remaining activity at 1 uM by Kinome scan method relative to control
Sequence of RAF proto-oncogene serine/threonine-protein kinase (Homo sapiens) (P04049 whole entry): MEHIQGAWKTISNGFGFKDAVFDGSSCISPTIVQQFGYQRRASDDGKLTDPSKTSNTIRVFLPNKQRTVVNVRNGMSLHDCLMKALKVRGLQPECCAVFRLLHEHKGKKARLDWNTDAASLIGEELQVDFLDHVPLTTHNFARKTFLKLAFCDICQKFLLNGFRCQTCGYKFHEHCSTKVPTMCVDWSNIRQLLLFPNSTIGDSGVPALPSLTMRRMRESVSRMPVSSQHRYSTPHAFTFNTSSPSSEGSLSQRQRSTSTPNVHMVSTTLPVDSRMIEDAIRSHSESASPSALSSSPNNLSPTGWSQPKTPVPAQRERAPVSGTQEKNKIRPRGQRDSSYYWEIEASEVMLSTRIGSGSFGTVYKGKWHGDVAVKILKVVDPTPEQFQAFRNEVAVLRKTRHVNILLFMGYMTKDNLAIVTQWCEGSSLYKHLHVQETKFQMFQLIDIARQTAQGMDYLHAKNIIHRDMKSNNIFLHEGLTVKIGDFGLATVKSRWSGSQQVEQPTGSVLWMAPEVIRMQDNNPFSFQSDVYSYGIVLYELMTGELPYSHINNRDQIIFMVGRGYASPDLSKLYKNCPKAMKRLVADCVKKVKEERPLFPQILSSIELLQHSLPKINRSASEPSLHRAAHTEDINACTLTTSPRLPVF

[10] = biological target: Serine/threonine-protein kinase PAK 5 (Homo sapiens) (UniProt Q9P286); assay: Inhibition of PAK7 (unknown origin) assessed as remaining activity at 1 uM by Kinome scan method relative to control
[11] = biological target: Mitogen-activated protein kinase 4 (Homo sapiens) (UniProt P31152); assay: Inhibition of ERK4 (unknown origin) assessed as remaining activity at 1 uM by Kinome scan method relative to control
Sequence of Mitogen-activated protein kinase 4 (Homo sapiens) (P31152 whole entry): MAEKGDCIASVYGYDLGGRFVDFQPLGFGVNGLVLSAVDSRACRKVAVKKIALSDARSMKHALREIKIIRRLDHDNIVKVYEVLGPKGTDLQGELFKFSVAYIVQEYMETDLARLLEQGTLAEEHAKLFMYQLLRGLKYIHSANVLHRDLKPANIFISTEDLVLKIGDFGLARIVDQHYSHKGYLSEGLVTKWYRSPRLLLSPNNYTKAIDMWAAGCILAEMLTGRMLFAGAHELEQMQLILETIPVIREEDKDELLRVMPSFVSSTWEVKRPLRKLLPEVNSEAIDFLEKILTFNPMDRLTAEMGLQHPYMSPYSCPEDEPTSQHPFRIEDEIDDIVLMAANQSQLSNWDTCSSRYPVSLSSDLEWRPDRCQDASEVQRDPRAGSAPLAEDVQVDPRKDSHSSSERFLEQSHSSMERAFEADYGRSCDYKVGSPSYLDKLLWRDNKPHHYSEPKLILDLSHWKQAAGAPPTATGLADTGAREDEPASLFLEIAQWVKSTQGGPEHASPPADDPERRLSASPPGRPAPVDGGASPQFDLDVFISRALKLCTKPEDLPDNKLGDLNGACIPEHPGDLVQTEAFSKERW

Sequence of Serine/threonine-protein kinase pim-2 (Homo sapiens) (Q9P1W9 whole entry, looked up): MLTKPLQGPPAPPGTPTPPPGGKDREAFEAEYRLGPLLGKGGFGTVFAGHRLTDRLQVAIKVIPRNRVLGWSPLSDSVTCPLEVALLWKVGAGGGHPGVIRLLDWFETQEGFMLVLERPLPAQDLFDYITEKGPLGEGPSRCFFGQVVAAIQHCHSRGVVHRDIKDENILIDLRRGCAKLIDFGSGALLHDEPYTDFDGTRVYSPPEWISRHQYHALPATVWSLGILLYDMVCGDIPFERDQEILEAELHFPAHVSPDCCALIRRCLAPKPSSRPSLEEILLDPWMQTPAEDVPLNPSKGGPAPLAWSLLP
Sequence of Aurora kinase B (Homo sapiens) (Q96GD4 whole entry): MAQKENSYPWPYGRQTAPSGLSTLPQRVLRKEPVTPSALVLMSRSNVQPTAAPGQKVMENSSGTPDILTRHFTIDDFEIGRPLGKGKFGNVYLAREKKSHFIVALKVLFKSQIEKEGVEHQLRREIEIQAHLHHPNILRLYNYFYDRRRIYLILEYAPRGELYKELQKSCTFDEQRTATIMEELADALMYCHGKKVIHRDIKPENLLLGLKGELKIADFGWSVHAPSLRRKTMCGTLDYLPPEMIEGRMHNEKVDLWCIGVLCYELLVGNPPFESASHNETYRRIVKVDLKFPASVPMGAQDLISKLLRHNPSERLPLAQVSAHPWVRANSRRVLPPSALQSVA

| Compound | Activity [1] | Activity [2] | Activity [3] | Activity [4] | Activity [5] | Activity [6] | Activity [7] | Activity [8] | Activity [9] | Activity [10] | Activity [11] |
| --- | --- | --- | --- | --- | --- | --- | --- | --- | --- | --- | --- |
| Nc1ccccc1Nc1ccc2c(c1)CCc1ccccc1C2=O | 98% | 97% | 87% | 99% | 98% | 93% | 85% | 97% | 93% | 91% | 97% |
| O=C1c2ccc(Nc3ccc(F)cc3F)cc2CCc2ccc(OC[C@H](O)CO)cc21 [Skepinone-L] | 100% | 96% | 100% | 91% | 91% | 76% | 89% | 100% | 100% | 86% | 100% |
